Reference: ChEMBL document CHEMBL2311480, “Inhibitors of apoptosis in testicular germ cells: synthesis and biological evaluation of some novel IBTs bearing sulfonamide moiety” (2013)

Test: Inhibition of malathion-induced apoptosis in goat testicular germ cells assessed as cell survival at 10 uM (malathion treated control = 41 +/- 6.24%)
Type: functional
Settings: Capra hircus; read-out: Survival
For `NS(=O)(=O)c1ccc2c(c1)sc1nc(-c3ccccc3)cn12`, the viability at 10 µM was 50%.
For `Cc1ccc(-c2cn3c(n2)sc2cc(S(N)(=O)=O)ccc23)cc1`, the viability at 10 µM was 64%.
`NS(=O)(=O)c1ccc2c(c1)sc1nc(-c3ccc(F)cc3)cn12` gave a viability at 10 µM of 43%.
`NS(=O)(=O)c1ccc2c(c1)sc1nc(-c3ccc(Cl)cc3)cn12` gave a viability at 10 µM of 56%.
With `NS(=O)(=O)c1ccc2c(c1)sc1nc(-c3ccc(Br)cc3)cn12` the viability at 10 µM was 52%.
For `NS(=O)(=O)c1ccc2c(c1)sc1nc(-c3ccc([N+](=O)[O-])cc3)cn12`, the viability at 10 µM was 39%.
Compound `NS(=O)(=O)c1ccc2c(c1)sc1nc(-c3cc4ccccc4oc3=O)cn12` has a viability at 10 µM of 46%.
For `NS(=O)(=O)c1ccc2c(c1)sc1nc(-c3cc4cc(Cl)ccc4oc3=O)cn12`, the viability at 10 µM was 61%.
Compound `NS(=O)(=O)c1ccc2c(c1)sc1nc(-c3cc4cc(Br)ccc4oc3=O)cn12` has a viability at 10 µM of 48%.
Work on `CCOC(=O)CC(SP(=S)(OC)OC)C(=O)OCC` (stereo not given) [MALATHION] yielded a viability at 10 µM of 41%.
